As a reminder, the IC50 is the midpoint of a concentration-inhibition curve. Broadly, the Kd is the free concentration of one partner at which half of the binding sites on the other are occupied at equilibrium, for simple one-to-one binding.

Non-standard residues stand in square brackets, D forms with d. Residues, ends and D or L forms follow the SMILES beside them. Tle = CC(C)(C)[C@H](N)C(=O)O Bounds are passed on as bounds.

For the experiment, the target named is T1, CAL PDZ (Homo sapiens, UniProt Q9HD26).
T1 construct: Recombinant CAL PDZ was expressed and purified in E. coli as previously described; made in house; host or cells: E. coli
In words: CALP fluorescence polarization (FP) competition assay, HTS format with dose-response validation. The experiment is classed as binding. Set-up: Inhibitory activity CALP at 100 μM: unit not given here. As to conditions: for IC50: read-out: Inhibitory activity CALP IC50. The protocol:
CALP and/or Dab2 inhibition assays were performed in biochemical “mix-and-measure” format in order to evaluate the effects on activation and inhibition of CALP and/or Dab2 by the compounds of the disclosure. Brief assay procedure is provided below. Unless otherwise specified, all of the compounds were obtained from commercial sources.
CALP inhibitors were identified by fluorescence polarization (FP) competition assays in high-throughput screening (HTS) format. Recombinant CAL PDZ was expressed and purified in E. coli as previously described (Amacher et al., Acta Cyst. (2011) F67, 600-603), and dialyzed into FP storage buffer (25 mM Tris pH 8.5, 150 mM NaCl, 0.1 mM TCEP, and 0.02% sodium azide). A fluorescent reporter peptide, NPG32, was purchased commercially with the following sequence: F*-[…] (F* denotes a N-terminal fluorescein group coupled via an aminohexanoic acid linker). Initial single-dose HTS was performed with libraries comprising ˜52,000 compounds (FAST Lab—Novartis Institutes for BioMedical Research). First, 25 nL of 5 mM small-molecule was transferred to 1536-well Grenier plates. 3 μL of 3.708 μM CALP in FP buffer (FP storage buffer supplemented with […]) was added, and plates were incubated for 10 min. Next, 3 μL of 60 nM NPG32 (in FP buffer) was added. Final reaction volumes were 6 μL and contained 1.854 μM CALP, 30 nM NPG32, and 20.83 μM small-molecule. […] Plates were incubated for 30 minutes at room temperature and anisotropy was measured (480 nm excitation wavelength and 535 nm emission wavelength). […] Compounds were validated in triplicate using 8-point dilution series in half-log increments with two orthogonal assays: FRET and TMR-based FP assay. For the FRET assay, a cerulean-CALP fusion protein (Cer-CALP) was expressed and purified as previously described (Zhao et al., 2018). A fluorescent reporter peptide, PRC34, was purchased commercially with the following sequence: TMR*-[…] (TMR* denotes a N-terminal tetramethylrhodamine group coupled via an aminohexanoic acid linker). First, 40 nL of compound was transferred to the plates. 5 μL of 16.632 μM Cer-CALP was added, and plates were incubated for 30 min. Next, 5 μL of 16.632 μM PRC34 was added, and plates were incubated for 30 min. Final reaction volumes were 10 μL and contained 8.316 μM CALP, 8.316 μM […], and variable concentrations of small-molecule. Negative controls contained equivalent amounts of DMSO (0.4%), while positive controls contained 100 μM NPG30 (sequence: […]). Plates were incubated for 30 min, and emission at 475 nm and 575 nm was measured following excitation at 430 nm. TMR FP assays were conducted as described for the FITC-based assay with the following exceptions: TMR was used as the reporter peptide, the final CALP concentration was 11.952 μM, and the positive control used was 100 μM NPG30.
On the technique in general: In fluorescence polarisation assays a small probe gives low polarisation when free and higher when bound to something large.

As for `CC[C@@]1(O)C[C@H](O[C@H]2C[C@H](N(C)C)[C@H](O)[C@H](C)O2)c2c(cc3c(c2O)C(=O)c2c(O)ccc(O)c2C3=O)[C@H]1C(=O)OC` [Example 14, methyl (1R,2R,4S)-4-(((2R,4S,5S,6S)-4-(dimethylamino)-5-hydroxy-6-methyltetrahydro-2H-pyran-2-yl)oxy)-2-ethyl-2,5,7,10-tetrahydroxy-6,11-dioxo-1,2,3,4,6,11-hexahydrotetracene-1-carboxylate], the “Inhibitory activity CALP at 100 μM” value is reported as −67.06 and the IC50 was determined as 730 nM.

For the compound `COc1cc(O)c2c(c1)oc(=O)c1c3cc(O)c(O)cc3oc21` [Example 7, 1,8,9-trihydroxy-3-methoxy-6H-benzofuro[3,2-c]chromen-6-one], the “Inhibitory activity CALP at 100 μM” value is −74.42 and the IC50 worked out at 1240 nM.

In the case of `C/C1=C/CC(O)/C=C\C(C)C(O)C(C)/C=C(\C)C(=O)c2c(O)c(C)cc3c2C(=O)C(Cl)=C(NC(=O)/C=C/C=C/C=C/C(C)C(O)CC1=O)C3=O` (stereo not shown) [Example 15, 2-chloro-13,19,23,28-tetrahydroxy-12,16,22,24,26,29-hexamethyl-13,14,19,22,23,24-hexahydro-1H-3,31-methanobenzo[e][1]azacyclononacosine-1,5,15,27,32(4H,12H,18H)-pentaone], the “Inhibitory activity CALP at 100 μM” value is −54.29 and the IC50 is 4710 nM.

`CC(C)[C@H](NC(=O)[C@H](CCC(N)=O)NC(=O)[C@H](Cc1c[nH]c2ccccc12)NC(=O)[C@H](CCCNC(=N)N)NC(=O)[C@H](CO)NC(=O)[C@H](CC(N)=O)NC(=O)[C@H](C)N)C(=O)N[C@H](C(=O)N[C@@H](CCCNC(=N)N)C(=O)N[C@H](C(=O)O)C(C)(C)C)[C@@H](C)O` [NPG35, reference compound] (H-ANSRWQVTR[Tle]-OH) returned a Kd (unlabeled peptide used as positive control) of no more than 1000 nM.

These data come from patent US20230338340A1, “Methods of Treating Cystic Fibrosis” (The Trustees of Dartmouth College, priority 2020, published 2023).
